Reference: ChEMBL document CHEMBL5046277, “Rational Design for Nitroreductase (NTR)-Responsive Proteolysis Targeting Chimeras (PROTACs) Selectively Targeting Tumor Tissues” (J Med Chem, 2022)
Active and inactive are the calls of the source. No cut-off for these calls is given here.

Assays:
[1] = test system: HCC827; experiment: Antiproliferative activity against human HCC827 cells assessed as reduction in cell viability measured after 72 hrs under normoxic condition by CCK-8 assay; type: functional, cell-based; settings: HCC827, 72 h
[2] = test system: HCC827; experiment: Antiproliferative activity against human HCC827 cells assessed as cell viability measured after 72 hrs under hypoxic condition by CCK-8 assay; type: functional, cell-based; settings: HCC827, 72 h
[3] = test system: HCC827; experiment: Antiproliferative activity against human HCC827 cells assessed as cell viability measured after 72 hrs in presence of NTR by CCK-8 assay; type: functional, cell-based; settings: HCC827, 72 h
[4] = target: von Hippel-Lindau disease tumor suppressor/Epidermal growth factor receptor (Homo sapiens) (UniProt P00533+P40337); experiment: Protac activity at VHL/EGFR in human HCC827 cells assessed as induction of EGFR degradation at 100 nM pretreated for 2 hrs with VHL-L followed by compound addition; type: cell-based
Chain of von Hippel-Lindau disease tumor suppressor/Epidermal growth factor receptor (Homo sapiens) (P00533 25-1210 limits assumed): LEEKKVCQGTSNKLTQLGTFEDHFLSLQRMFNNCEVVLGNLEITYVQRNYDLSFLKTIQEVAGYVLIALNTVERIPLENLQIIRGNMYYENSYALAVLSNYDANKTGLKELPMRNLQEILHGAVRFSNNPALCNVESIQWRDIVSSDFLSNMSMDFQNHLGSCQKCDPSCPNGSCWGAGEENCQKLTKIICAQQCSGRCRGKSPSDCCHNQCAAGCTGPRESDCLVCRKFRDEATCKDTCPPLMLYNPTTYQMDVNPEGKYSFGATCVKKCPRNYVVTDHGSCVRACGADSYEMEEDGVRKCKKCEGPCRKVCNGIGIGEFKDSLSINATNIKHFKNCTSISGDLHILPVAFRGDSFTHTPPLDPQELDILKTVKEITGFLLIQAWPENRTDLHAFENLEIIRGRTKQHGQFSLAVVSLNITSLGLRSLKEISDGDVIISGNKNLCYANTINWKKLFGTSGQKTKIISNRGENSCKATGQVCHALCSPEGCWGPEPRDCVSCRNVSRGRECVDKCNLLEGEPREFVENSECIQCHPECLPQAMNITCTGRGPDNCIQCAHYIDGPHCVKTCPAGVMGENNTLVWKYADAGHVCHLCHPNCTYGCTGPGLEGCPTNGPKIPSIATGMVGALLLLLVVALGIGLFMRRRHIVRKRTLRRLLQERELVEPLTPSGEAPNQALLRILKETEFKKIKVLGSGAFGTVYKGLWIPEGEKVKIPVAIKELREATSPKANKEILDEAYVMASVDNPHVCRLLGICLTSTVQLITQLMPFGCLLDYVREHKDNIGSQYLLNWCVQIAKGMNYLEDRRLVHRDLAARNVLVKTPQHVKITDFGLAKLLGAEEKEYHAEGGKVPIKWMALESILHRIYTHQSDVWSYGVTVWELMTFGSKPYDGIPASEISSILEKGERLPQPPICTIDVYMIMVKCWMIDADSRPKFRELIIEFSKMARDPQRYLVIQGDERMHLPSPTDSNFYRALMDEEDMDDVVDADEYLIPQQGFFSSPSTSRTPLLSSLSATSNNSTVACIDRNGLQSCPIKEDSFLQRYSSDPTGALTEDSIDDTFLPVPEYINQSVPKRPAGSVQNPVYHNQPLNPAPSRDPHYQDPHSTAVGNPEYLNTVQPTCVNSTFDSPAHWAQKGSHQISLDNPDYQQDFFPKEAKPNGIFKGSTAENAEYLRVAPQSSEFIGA
Chain of von Hippel-Lindau disease tumor suppressor/Epidermal growth factor receptor (Homo sapiens) (P40337 whole entry partner): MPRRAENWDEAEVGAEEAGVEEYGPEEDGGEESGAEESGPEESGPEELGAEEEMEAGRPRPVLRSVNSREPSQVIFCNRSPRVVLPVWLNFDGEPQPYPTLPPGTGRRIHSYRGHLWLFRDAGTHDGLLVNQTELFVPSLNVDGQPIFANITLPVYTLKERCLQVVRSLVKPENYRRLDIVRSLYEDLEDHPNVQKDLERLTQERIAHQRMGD

[5] = target: Epidermal growth factor receptor (Homo sapiens) (UniProt P00533); experiment: Induction of EGFR degradation in human HCC827 cells assessed as EGFR protein level measured after 72 hrs under normoxic condition by Western blot assay; type: functional, cell-based
Chain of Epidermal growth factor receptor (Homo sapiens) (P00533 whole entry): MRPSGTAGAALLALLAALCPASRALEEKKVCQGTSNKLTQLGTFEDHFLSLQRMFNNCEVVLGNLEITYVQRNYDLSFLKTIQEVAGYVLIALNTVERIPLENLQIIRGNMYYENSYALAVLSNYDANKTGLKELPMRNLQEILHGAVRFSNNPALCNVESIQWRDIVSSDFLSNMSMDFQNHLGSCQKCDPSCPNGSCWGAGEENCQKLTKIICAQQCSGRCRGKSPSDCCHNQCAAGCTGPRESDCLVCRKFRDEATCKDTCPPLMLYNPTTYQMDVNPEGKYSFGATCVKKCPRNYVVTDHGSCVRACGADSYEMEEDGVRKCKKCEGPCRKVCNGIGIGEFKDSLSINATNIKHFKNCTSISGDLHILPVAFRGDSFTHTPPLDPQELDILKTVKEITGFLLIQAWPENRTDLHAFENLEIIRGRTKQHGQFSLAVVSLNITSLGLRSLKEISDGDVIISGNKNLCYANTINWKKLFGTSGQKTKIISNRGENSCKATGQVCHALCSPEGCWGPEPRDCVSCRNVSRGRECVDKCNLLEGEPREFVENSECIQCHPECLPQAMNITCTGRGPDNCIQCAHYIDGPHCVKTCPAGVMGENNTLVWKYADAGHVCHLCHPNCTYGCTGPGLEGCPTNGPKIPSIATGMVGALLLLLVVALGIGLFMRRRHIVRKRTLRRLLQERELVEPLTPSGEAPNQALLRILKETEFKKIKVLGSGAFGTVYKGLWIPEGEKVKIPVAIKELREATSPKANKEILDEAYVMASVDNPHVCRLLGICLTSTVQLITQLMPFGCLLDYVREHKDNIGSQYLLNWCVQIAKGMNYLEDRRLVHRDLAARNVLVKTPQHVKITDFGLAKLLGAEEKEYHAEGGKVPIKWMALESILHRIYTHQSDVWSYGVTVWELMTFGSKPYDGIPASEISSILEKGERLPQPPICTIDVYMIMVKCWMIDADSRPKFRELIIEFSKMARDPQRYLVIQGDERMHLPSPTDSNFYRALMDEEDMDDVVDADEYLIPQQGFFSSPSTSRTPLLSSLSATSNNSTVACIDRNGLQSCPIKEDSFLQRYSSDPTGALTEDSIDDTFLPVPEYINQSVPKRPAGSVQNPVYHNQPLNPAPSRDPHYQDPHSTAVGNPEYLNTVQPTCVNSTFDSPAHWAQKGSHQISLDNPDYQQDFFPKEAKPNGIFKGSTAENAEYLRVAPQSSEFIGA

[6] = target: Epidermal growth factor receptor (Homo sapiens) (UniProt P00533); experiment: Induction of EGFR degradation in human HCC827 cells assessed as EGFR protein level measured after 72 hrs by Western blot assay; type: cell-based
[7] = test system: HCC827; experiment: Antiproliferative activity against human HCC827 cells assessed as cell viability measured after 72 hrs by CCK-8 assay; type: functional, cell-based

SMILES | IC50 [1] [nM] | IC50 [2] [nM] | IC50 [3] [nM] | Activity [4] | Activity [5] | Activity [6] | Activity [7]
Cc1ncsc1-c1ccc(CNC(=O)[C@@H]2C[C@@H](O)CN2C(=O)[C@@H](NC(=O)COCCOCCn2cc(CCCCCOc3cc4ncnc(Nc5ccc(F)c(Cl)c5)c4cc3NC(=O)/C=C/CN3CCCCC3)nn2)C(C)(C)C)cc1 | 4 | 18.7 | 6 | Active | Dose-Dependent Effect |  | 
Cc1ncsc1-c1ccc(CNC(=O)[C@@H]2C[C@@H](O)CN2C(=O)[C@@H](NC(=O)COCCOCCOCCn2cc(COc3cc4ncnc(Nc5ccc(F)c(Cl)c5)c4cc3NC(=O)/C=C/CN3CCCCC3)nn2)C(C)(C)C)cc1 |  |  |  |  | inactive | inactive | inactive
